Test results published in patent US7538234B2, “Preparation of Optically active 2-(1-hydroxyethyl)-5-hydroxynaphtho[2,3-b]furan-4, 9-diones having anticancer activities” (Taheebo Japan Co., Ltd., priority 2007, dated 2009).

Columns and labels:
[1] = system: Raji cell; test: Survival of Raji cells in the EBV-EA activation test; assay type: cell-based, human; conditions: 2 days
Procedure: (§1) Additionally, cancer-preventing effects about Epstein-Barr virus early antigen (EBV-EA) using Raji cell, which was available from George Klein, Karolinska Institute, Sweden, were studied (cf. Table 2). • (1) To a reaction culture (1 ml) in a 15 ml plastic tube were added 1×10^6 of lymphoma Raji cells of human origin, and the mixture was incubated for 2 days at 37° C. under 5% CO2 gas. The reaction culture was a solution wherein butyric acid was added to RPMI-1640 (Roswell Park Memorial Institute) medium containing 8% FBS in a concentration of 4 mM. In case of positive controls, to the reaction culture was added 12-O-tetradecanoylphorbol-13-acetate (TPA) (20 ng, 32 pmol). • (2) Analysis was carried out by adding test compounds to the reaction culture in the above (1) with TPA in 1000, 500, 100 and 10 times higher concentration by mole (32, 16, 3.2 and 0.32 nmol) to TPA and incubating in a similar manner to the above. • (3) 2 days after incubation, a reaction tube was centrifuged at 1000 rpm for 10 minutes, and supernatants were discarded to collect reaction cells at the bottom of the tube, and thereto was added a phosphate buffered saline (0.1 ml) and the mixture was mixed well. To a glass slide for pathological pieces was added the mixture (5 μl), and then the mixture was air-dried to dryness. • (4) An antigen-antibody reaction was carried out at 37° C. in wet process by adding a diluted serum (1 μl) of patient with epipharynx carcinoma to the dried mixture. 45 minutes after the reaction, the resultant was washed with neutral phosphate buffer three times and then air-dried in a similar manner to the above. Then, thereto was added human blood gamma globulin antibody (1 μl), wherein a fluorescent substance was bound, to carry out an antigen-antibody reaction. 45 minutes after the reaction, the mixture was washed with neutral phosphate buffer to give a test sample. • (5) The test sample on a glass slide was observed under fluorescent light microscope. Both of dead and live cells were calculated, and the survival ratio in percentage is shown as a cancer-preventing activity, and the data of each sample were compared (cf. Table 2).

[2] = system: Epstein-Barr virus early antigen (EBV-EA); test: Inhibitory effect of TPA-induced EBV-EA activation in Raji cells; assay type: cell-based, human; conditions: for EBV-EA-positive cell: Raji cells, 2 days
Procedure: as §1

[3] = system: human prostate cancer cell PC-3; test: Cytotoxicity experiment (trypan blue dead cell count, 3 days incubation); assay type: cell-based; conditions: for EC50: concentration of 50% of dead cells, 3 days incubation
Procedure: (§2) Cytotoxicity experiments were carried out by using human prostate cancer cell PC-3 (Invest. Urology 17: 16, (1979)), human lung cancer cell A-549 (J. Nat. Cancer Inst. 51: 1417, (1973)) and human breast cancer cell MCF-7 (cr. Table 1). Cells used in the experiments were obtained from Laboratory Products Dept. of Dainippon Pharmaceuticals Inc. (now Dainippon Sumitomo Pharma Co., Ltd.). • (1) In 3 cm plastic petri dish, 5×10^6 of the above human origin cancer cell was incubated at 37° C. under 5% CO2 gas on an incubation medium wherein 10% fetal bovine serum (FBS) was added to a basal medium Dulbecco's modified eagle medium (DMEM). • (2) It was confirmed 1 day after the incubation that the cells were adhered to the petri dish. All incubation media were discarded, and to the cells were added fresh media (1 ml) to give reaction media. Thereto was added a solution of a test compound in DMSO (2 μl), and the mixture was incubated for 3 days under the same conditions as in the above (1). • (3) 3 days after the incubation, all cells were collected with a scrapper, and the mixture was softly stirred. Then, an aliquot (0.1 ml) was taken into a tube, and thereto was added 0.25% trypan blue solution (0.1 ml), and the mixture was stirred and then allowed to stand for 10 minutes. Both of dead and live cells suspended in the mixture were observed using a white cell counter under light microscope to calculate cytotoxicity effects to the cancer cells. • (4) The number of the observed dead cells was calculated on the basis of the total number of cells observed as 100% using a white cell counter. Each bioactivity evaluation of each compound was represented by EC50 value (μM), which refers to a concentration of 50% of dead cells (cf. Table 1).

[4] = system: human breast cancer cell MCF-7; test: as above; assay type: cell-based; conditions: for EC50: concentration of 50% of dead cells, 3 days incubation
Procedure: as §2

[5] = system: human lung cancer cell A-549; test: as above; assay type: cell-based; conditions: for EC50: concentration of 50% of dead cells, 3 days incubation
Procedure: as §2

[6] = compound concentration 1000 (molar ratio/32 pmol TPA)
[7] = compound concentration 10 (molar ratio/32 pmol TPA)
[8] = compound concentration 100 (molar ratio/32 pmol TPA)
[9] = compound concentration 500 (molar ratio/32 pmol TPA)

Row | SMILES | % survival (value in parentheses) [1, 6] [%] | EBV-EA-positive cell [2, 7] [%] | EBV-EA-positive cell [2, 8] [%] | EBV-EA-positive cell [2, 9] [%] | EBV-EA-positive cell [2, 6] [%] | EC50 ([3]; Homo sapiens, 72 h) [nM] | EC50 ([4]; Homo sapiens, MCF7, 72 h) [nM] | EC50 ([5]; Homo sapiens, A549, 72 h) [nM] | % survival (value in parentheses) [1, 9] | EC50 [3] [nM] | EC50 [4] [nM] | EC50 [5] [nM] | cytotoxicity compared with mitomycin ([3]; PC-3, statement in words) | cytotoxicity compared with mitomycin ([4]; MCF-7, statement in words) | cytotoxicity compared with mitomycin ([5]; A-549, statement in words) | inhibition of EBV-EA expression ([2]; statement in words)
1 | CC1(C)CCC2=C(O1)c1ccccc1C(=O)C2=O [β-Lapachone, 3,4-dihydro-2,2-dimethyl-2H-naphtho(1,2-b)pyrane-5,6-dione] | 50 | 73.1 | 50.4 | 21.7 | 4.7 | – | – | – | – | – | – | – | – | – | – | –
2 | CC(O)c1cc2c(o1)C(=O)c1cccc(O)c1C2=O (racemic) [Racemate NQ801, 2-(1-hydroxyethyl)-5-hydroxynaphtho[2,3-b]furan-4,9-dione] | 60 | 52.9 | 20.7 | 6.2 | 0 | 560 | 8500 | 3240 | (70) % | – | – | – | – | – | – | –
3 | C[C@@H](O)c1cc2c(o1)C(=O)c1cccc(O)c1C2=O [(R)-NQ801] | 70 | 59.4 | 24.7 | 9.7 | 0 | – | – | – | – | 930 | 9300 | 3000 | – | – | – | –
4 | CO[C@@]12[C@H](COC(N)=O)C3=C(C(=O)C(C)=C(N)C3=O)N1C[C@@H]1N[C@@H]12 [Mitomycin] | – | – | – | – | – | 140 | 960 | 430 | – | – | – | – | – | – | – | –
5 | C[C@H](O)c1cc2c(o1)C(=O)c1cccc(O)c1C2=O [(S)-NQ801, (S)-2-(1-hydroxyethyl)-5-hydroxynaphtho[2,3-b]-furan-4,9-dione] | 60 | 50 | 16.9 | 4.4 | 0 | 140 | 3500 | 960 | (60) % | – | – | – | same cytotoxicity as mitomycin | same cytotoxicity as mitomycin | same cytotoxicity as mitomycin | inhibits EBV-EA expression
